Source: patent publication US20130102645A1, “Methods and compositions for controlling vascularization in ophthalmological and dermatological diseases” (AVIENNE PHARMACEUTICALS GMBH, priority 2011, published 2013)
Values after ≈ are worked out from the molar mass of the structure shown. “Also recorded” adds a separate entry of the source. Like-named read-outs stand apart in the source and are kept apart here. Each block holds one compound with its values, some of them ahead of it.

Tests used:
[1] = system: endothelial cell lines; test: proliferation assay of primary endothelial cells, direct cell counting; type: cell-based, human
Protocol: Primary endothelial cell lines (HMVEC-dLyAd—human dermal lymphatic microvascular endothelial cells (EC), dermal blood microvascular EC, HMVEC-LB lung blood microvascular EC, HMVEC-C cardiac human microvascular endothelial cells and MVEC-d—dermal microvascular EC) are from Cambrex Bio Science (Cambrex Bio Science Walkersville Inc., Walkersville, Md., USA). Cell lines are cultured according to the manufacturer's recommendations.
For proliferation assays, cells are seeded in 24- to 96-well plates in medium at different concentrations according to the cell type. After 24 hours, the medium is removed and replaced with fresh medium containing increasing concentrations of the compounds. The plates are then incubated for additional 24 to 72 hours, depending on the type of the experiment. Cells are then trypsinized and collected for direct counting. Results are plotted and expressed as means (±SE) for each compound and for a given concentration.

[2] = system: endothelial cells; details: read-out: IC50, colony-forming ability of endothelial cells; cited from earlier work
[3] = system: MDA-MB-435; test: cytotoxic activity in breast cancer cell line; type: cell-based; details: up to 20 μM
[4] = rat clinical pathology (serum chemistry and hematology); type: in vivo; details: rats, single 5 mg/kg IV or 20 mg/kg PO
Protocol: (§1) Preliminary pharmacokinetic and preliminary toxicology information was obtained following a single intravenous dose of 5 mg/kg and a single 20 mg/kg PO dose to male Sprague-Dawley rats for 5 separate test articles. AV-398 was dosed both via the IV and PO routes. Blood was collected from the animals in Groups 1 through 10 for pharmacokinetic analysis. Approximately 0.25 mL of blood was collected in potassium EDTA tubes via the jugular cannulae for all time points. For all IV treated animals, blood was collected at 9 time points (0.083, 0.25, 0.5, 1, 2, 4, 6, 8 and 12 hour post-dose) via the jugular cannulae. For all animals treated by oral gavage, blood was collected at 7 time points (0.5, 1, 2, 4, 6, 8 and 12 hour post-dose) via the jugular cannulae. At the final time point additional blood volume was collected in a separate EDTA tube from each animal for clinical pathology evaluation (including serum chemistry and hematology). Predose samples were collected from the extra animals which were not assigned to any of the dose groups. The plasma samples were analyzed by LC-MS/MS to determine the plasma concentrations of drug candidates. Pharmacokinetic analysis of the plasma concentration data was conducted using non-compartmental analysis with WinNonlin Version 4.1. […] The oral absorption of AV-398 when administered at 20 mg/kg dose as a suspension was low at an average of 8.4%.

[5] = system: ocular angiogenesis; test: conjunctival incision angiogenesis model in pigs, eye drops; type: in vivo, pig
Description: AV-398 inhibits ocular angiogenesis in vivo in a widely accepted large animal model. The cornea is an ideal model system for angiogenesis in general, and more specifically for angiogenesis of the eye. The corneal angiogenesis assay is one of the most widely used in vivo assay for the evaluation of factors influencing angiogenesis (Auerbach R, 2003, Thiele W, 2006). One reason that makes the cornea an ideal object for observing neovascularization is its normal lack of vascularity, maintained by different molecular mechanisms. New vessels can easily be identified by visual inspection alone and quantified with the help of computerized image analysis programs. The effect of an ophthalmological formulation of AV-398 after a conjunctival insult with subsequent angiogenesis in a large animal model was investigated in order to test whether the in vitro data, such as anti-proliferative effects on human endothelial cells, could be reproduced in vivo.
Six white pigs weighing 10 to 15 kg were included. First, corneae and conjunctivae were anaesthesized by local application of lidocaine 4%. Then, an incision of 0.5 cm length through the conjunctival tunica sclerae to the substantia propria was placed in parallel to the dorsal corneal limbus at a distance of approximately 2 mm. The animals were treated as follows. The right eye of each animal was treated with a commercially available ocular eye drop solution (PROTAGENT® EYE DROPS 2%) containing 100 μg/ml of AV-398. The corresponding left eyes of each animal were control-treated with the same eye drop solution alone. Two droplets (˜100 μl) of AV-398 were applied in the right eye immediately after setting of the incision and two droplets of the ophthalmologic carrier formula as negative control in the left eye of the same animal. Animals received AV-398 as well as the eye drops 0.5 hrs post incision and the same treatment at 3 hrs post incision.

[6] = rat pharmacokinetics, plasma LC-MS/MS; type: in vivo; details: for half-life: iv, 5 mg/kg
Protocol: as §1

[7] = solubility; type: physicochemical
Protocol: Sufficiently concentrated solutions are readily achievable. AV-398 is soluble in PBS 7.4 at 100 μg/ml, in Tris.Cl buffer at 1 mg/ml, and as a sodium salt at least up to 20 mg/ml.

[8] = system: chorioallantoic membrane (CAM) of the developing chicken embryo; test: chicken egg chorioallantoic membrane (CAM) assay; type: in vivo; details: applied on CAM day 6 p.f., incubated until day 11 p.f.
Description: Local application of AV-398 inhibits in vivo angiogenesis as evidenced by the chicken egg chorioallantoic membrane model. The chorioallantoic membrane (CAM) of the developing chicken embryo serves as an alternative to the traditional mammalian in vivo models, and further corroborates the findings in pigs described above and has clear relevance for the treatment e.g. dermatological indications linked to neoangiogenesis. AV-398 was applied over 5 days.
Eggs were opened on day 6 post fertilization (p.f.). Substances (200 μl respectively) were applied on the CAM on day 6 p.f. and incubated until day 11 p.f. As a vehicle control, 1% DMSO in PBS (phosphate-buffered saline solution pH 7.4) without AV-398 was used. Eggs were inspected daily by stereo-microscopy and pictures were taken (6× magnification).

[9] = system: HUVEC; test: growth inhibition of HUVEC cell lines; type: cell-based; details: Homo sapiens, read-out: IC50 for growth inhibition of HUVECs
Protocol: For proliferation assays, cells are seeded in 24- to 96-well plates in medium at different concentrations according to the cell type. […] Cells are then trypsinized and collected for direct counting. Results are plotted and expressed as means (±SE) for each compound and for a given concentration.
In Table 2, the group “R” is defined as follows: […]

[10] = system: SAOS-2, Hela, HT29, U87MG and SK-N-DZ cells; test: cytotoxic activity in cancer cell lines by cell numbers; type: cell-based; details: up to 20 μM; uncoated dishes or coated with vitronectin or fibrinogen
Protocol: For example, cytotoxic activity of AV-398 was determined in several cancer cell lines (SAOS-2, Hela, HT29, U87MG and SK-N-DZ cells) by assessing cell numbers after treating cell lines with varying concentration of up to 20 μM. Experiments were performed either on uncoated dishes, or on dishes coated with vitronectin or fibrinogen. In addition, tumor cell lines were treated in parallel with echistatin (Gan Z R et al (1998)). […] Similar data were recently published showing cytotoxic activity also only against MDA-MB-435 breast cancer cells (Dayam R et al, 2006).

[11] = biological target: αvβ3-receptor (Homo sapiens, UniProt P05106+P06756); details: cited from earlier work
Chain of αvβ3-receptor (P06756 31-889 limits assumed): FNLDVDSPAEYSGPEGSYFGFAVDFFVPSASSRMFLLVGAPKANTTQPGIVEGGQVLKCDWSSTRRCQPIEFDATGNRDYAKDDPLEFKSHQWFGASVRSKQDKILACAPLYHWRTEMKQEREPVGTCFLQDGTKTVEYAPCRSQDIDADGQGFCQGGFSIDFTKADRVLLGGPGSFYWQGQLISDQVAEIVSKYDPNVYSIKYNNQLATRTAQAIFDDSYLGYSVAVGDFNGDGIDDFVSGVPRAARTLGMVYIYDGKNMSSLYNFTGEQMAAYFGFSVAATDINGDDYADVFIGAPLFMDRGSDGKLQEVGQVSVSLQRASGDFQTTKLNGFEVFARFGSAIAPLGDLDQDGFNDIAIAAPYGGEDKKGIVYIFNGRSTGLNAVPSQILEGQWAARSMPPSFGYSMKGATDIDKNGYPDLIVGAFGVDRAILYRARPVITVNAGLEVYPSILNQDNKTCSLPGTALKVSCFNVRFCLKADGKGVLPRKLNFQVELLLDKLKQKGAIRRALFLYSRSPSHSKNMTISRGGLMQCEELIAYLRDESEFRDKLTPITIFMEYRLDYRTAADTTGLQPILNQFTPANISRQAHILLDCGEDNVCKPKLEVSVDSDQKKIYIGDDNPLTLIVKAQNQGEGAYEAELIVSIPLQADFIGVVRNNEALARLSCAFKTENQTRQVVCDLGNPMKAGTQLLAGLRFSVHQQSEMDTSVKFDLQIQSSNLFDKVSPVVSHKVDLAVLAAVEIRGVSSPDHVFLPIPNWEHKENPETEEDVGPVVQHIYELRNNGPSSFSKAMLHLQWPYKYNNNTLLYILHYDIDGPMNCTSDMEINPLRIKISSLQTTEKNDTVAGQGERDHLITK
Chain of αvβ3-receptor (P06756 891-1048 partner limits assumed): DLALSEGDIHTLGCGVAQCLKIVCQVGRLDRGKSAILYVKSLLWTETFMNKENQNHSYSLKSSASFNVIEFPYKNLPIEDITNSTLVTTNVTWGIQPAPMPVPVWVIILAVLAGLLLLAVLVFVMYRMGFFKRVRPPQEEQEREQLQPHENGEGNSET
Chain of αvβ3-receptor (P05106 27-788): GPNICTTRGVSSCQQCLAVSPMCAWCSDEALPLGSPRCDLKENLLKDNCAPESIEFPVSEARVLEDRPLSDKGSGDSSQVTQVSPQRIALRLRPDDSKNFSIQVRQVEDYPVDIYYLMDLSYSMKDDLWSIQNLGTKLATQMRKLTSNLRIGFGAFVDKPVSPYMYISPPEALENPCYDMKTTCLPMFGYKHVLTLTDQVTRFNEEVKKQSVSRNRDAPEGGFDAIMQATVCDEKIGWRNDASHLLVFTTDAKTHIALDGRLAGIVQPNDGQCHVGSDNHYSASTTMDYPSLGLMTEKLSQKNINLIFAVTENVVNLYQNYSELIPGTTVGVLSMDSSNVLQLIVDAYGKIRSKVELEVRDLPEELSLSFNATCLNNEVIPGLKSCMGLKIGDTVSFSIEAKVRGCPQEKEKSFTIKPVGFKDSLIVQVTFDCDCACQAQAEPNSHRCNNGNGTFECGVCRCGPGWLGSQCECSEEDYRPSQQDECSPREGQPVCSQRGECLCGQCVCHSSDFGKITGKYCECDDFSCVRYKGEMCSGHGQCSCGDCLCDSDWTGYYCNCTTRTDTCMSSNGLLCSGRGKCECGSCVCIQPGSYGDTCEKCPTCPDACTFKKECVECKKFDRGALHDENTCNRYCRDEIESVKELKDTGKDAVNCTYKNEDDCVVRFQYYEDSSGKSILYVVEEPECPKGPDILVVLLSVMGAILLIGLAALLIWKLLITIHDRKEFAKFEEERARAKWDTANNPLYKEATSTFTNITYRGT

Compound: echistatin [reference compound]
IC50 ([1]; endothelial cells (lung, lymphatics, umbilical), FIGS. 1-3, read-out: Half-maximal growth inhibition): 800 nM

Compound: CC(C)[C@H]1C(=O)N[C@@H](CCCN=C(N)N)C(=O)NCC(=O)N[C@@H](CC(=O)O)C(=O)N[C@H](Cc2ccccc2)C(=O)N1C [Cilengitide, cycloL-Arg-Gly-L-Asp-D-Phe-N [Me] L-Val]
IC50 [2]: 6700 ± 1200 nM

effects on hematological and serum chemistry parameters [4]: no side-related effects
bleeding surrounding the incision ([5]; immediately after treatment): marked diffuse bleeding
oral absorption (average) ([6]; 20 mg/kg as a suspension): 8.4%
peak plasma concentration (average) ([6]; IV 5 mg/kg): 1736.56 ng/mL
time of peak plasma concentration ([6]; IV 5 mg/kg): 0.083 h
peak plasma concentration (mean) ([6]; PO 20 mg/kg suspension): 54.07 ng/mL
AUC(0-inf) ([6]; male, Sprague-Dawley, plasma, IV 5 mg/kg): 690 ng·h/mL
AUC(0-t) ([6]; male, Sprague-Dawley, plasma, PO 20 mg/kg suspension, read-out: average AUC (0-12 hr)): 234 ng·h/mL
half-life ([6]; male, Sprague-Dawley, plasma, IV 5 mg/kg, read-out: Terminal plasma half-life (converted)): 30 min
half-life ([6]; male, Sprague-Dawley, plasma, IV 5 mg/kg, read-out: terminal plasma half-life (range)): 10.8 to 40.8 min
half-life ([6]; male, Sprague-Dawley, plasma, after intravenous administration, read-out: terminal plasma half-life (converted)): 30 min
solubility ([7]; Tris.Cl buffer, aqueous buffer): 1000 µg/mL (≈ 2510 µM)
solubility ([7]; as a sodium salt): ≥ 20000 µg/mL
solubility ([7]; pH 7.4, aqueous buffer, PBS 7.4): 100 µg/mL (≈ 251 µM)
Compound: CCOc1cc(C=C2S/C(=N/c3ccc(C(=O)O)cc3)N(C)C2=O)ccc1O (stereo in doubt) [AV-398, 4-({5-[(E)-1-(3-ethoxy-4-hydroxyphenyl)methylidene]-3-methyl-4-oxo-1,3-thiazolan-2-yliden}amino)benzoic acid]
activity against breast cancer cell line MDA-MB-435 [3]: limited activity
IC50 ([1]; Homo sapiens, Endothelial cell, endothelial cells (lung, lymphatics, umbilical), FIGS. 1-3, read-out: Half-maximal growth inhibition): 400 nM
IC50 ([1]; Homo sapiens, endothelial cell lines, read-out: 50% inhibitory concentration): 200 to 500 nM
neoangiogenesis on conjunctivae vs control-treated eyes ([5]; eye drops 100 μg/ml, right eye, left eye vehicle): diminished neoangiogenesis
local or systemic adverse side effects ([5]; three weeks post incision): no local or systemic adverse side effects
vascularization of CAM / chicken embryo vs vehicle control [8]: markedly decreased vascularization; also recorded: significant reduction of vascularization
IC50 [9]: < 300 nM
effects on cancer cell lines (cytotoxic activity) [10]: no meaningful effects
αυβ3 binding affinity [11]: 240 nM
